# Values of other authors as cited in patent publication US20060003004A1 (Collegium Pharmaceutical, Inc., priority 2002, published 2006).
# Read-outs that look alike come from different tables or passages of the source. Marks after values point to notes of the source that are not given here.
# How the values were obtained:
# [1] = 40-120 mg/day, 1032 patients
# [2] = not given; remark: listed apart in the source
# [3] = intravenous, 10 patients
# uptake of dopamine = uptake of dopamine (Homo sapiens, UniProt Q01959)
# Sequence of uptake of dopamine (Q01959 whole entry): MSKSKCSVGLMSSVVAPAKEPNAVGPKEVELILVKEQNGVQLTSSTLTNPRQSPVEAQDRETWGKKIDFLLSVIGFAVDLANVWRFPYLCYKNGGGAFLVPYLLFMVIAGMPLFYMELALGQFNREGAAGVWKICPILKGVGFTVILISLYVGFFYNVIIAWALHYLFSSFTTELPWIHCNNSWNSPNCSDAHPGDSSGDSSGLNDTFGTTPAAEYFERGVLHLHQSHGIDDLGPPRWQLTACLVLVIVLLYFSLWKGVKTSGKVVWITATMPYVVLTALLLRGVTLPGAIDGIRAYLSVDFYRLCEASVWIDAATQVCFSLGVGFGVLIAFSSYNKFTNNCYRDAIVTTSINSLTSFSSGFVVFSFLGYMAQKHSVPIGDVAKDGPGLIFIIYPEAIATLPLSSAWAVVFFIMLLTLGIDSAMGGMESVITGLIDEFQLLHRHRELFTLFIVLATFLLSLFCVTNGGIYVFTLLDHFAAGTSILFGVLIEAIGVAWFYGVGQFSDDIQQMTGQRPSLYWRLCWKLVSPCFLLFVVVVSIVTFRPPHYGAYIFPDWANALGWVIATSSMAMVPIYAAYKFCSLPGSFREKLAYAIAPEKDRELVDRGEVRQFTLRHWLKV
# [4] = system: alpha adrenergic receptors
# [5] = system: beta adrenergic receptors
# [6] = system: beta adrenoceptors in rat cortex; settings: after chronic administration
# [7] = not given; remark: listed apart in the source
# [8] = for Participants who failed the dose escalation: escalation to 200 mg daily
# [9] = n=1,033
# [10] = Phase 2 and Phase 3 depression studies
# [11] = 100 mg/day twice daily, N = 1871
# [12] = 200 mg/day twice daily, N = 865
smiles,measurement,setting,value
CNCC[C@H](Oc1cccc2ccccc12)c1cccs1 [duloxetine],"Rate of adverse events nausea, dry mouth, fatigue, dizziness, constipation, somnolence, decreased appetite, and sweating",[1],more than 5%
"CCN(CC)C(=O)C1(c2ccccc2)CC1CN (stereo not shown) [milnacipran, Milnacipran]",Frequency of Adverse Experiences: Abdominal Pain,"50 mg/day twice daily, N = 426",6.1%
same,Frequency of Adverse Experiences: Agitation,"50 mg/day twice daily, N = 426",1.6%
same,Frequency of Adverse Experiences: Anxiety,"50 mg/day twice daily, N = 426",2.8%
same,Frequency of Adverse Experiences: Dry mouth,"50 mg/day twice daily, N = 426",9.4%
same,Frequency of Adverse Experiences: Dyspepsia,"50 mg/day twice daily, N = 426",3.5%
same,Frequency of Adverse Experiences: Dysuria,"50 mg/day twice daily, N = 426",1.4%
same,Frequency of Adverse Experiences: Fatigue,"50 mg/day twice daily, N = 426",2.8%
same,Frequency of Adverse Experiences: Headache,"50 mg/day twice daily, N = 426",14.6%
same,Frequency of Adverse Experiences: Hot flushes,"50 mg/day twice daily, N = 426",1.6%
same,Frequency of Adverse Experiences: Increased Sweating,"50 mg/day twice daily, N = 426",14.0%
same,Frequency of Adverse Experiences: Insomnia,"50 mg/day twice daily, N = 426",9.2%
same,Frequency of Adverse Experiences: Nausea,"50 mg/day twice daily, N = 426",12.7%
same,Frequency of Adverse Experiences: Nervousness,"50 mg/day twice daily, N = 426",4.2%
same,Frequency of Adverse Experiences: Palpitations,"50 mg/day twice daily, N = 426",2.3%
same,Frequency of Adverse Experiences: Somnolence,"50 mg/day twice daily, N = 426",5.4%
same,Frequency of Adverse Experiences: Tremor,"50 mg/day twice daily, N = 426",0.9%
same,Frequency of Adverse Experiences: Vertigo,"50 mg/day twice daily, N = 426",1.6%
same,Frequency of Adverse Experiences: Vomiting,"50 mg/day twice daily, N = 426",3.8%
same,Frequency of Adverse Experiences: Agitation,[11],3.3%
same,Frequency of Adverse Experiences: Anxiety,[11],4.1%
same,Frequency of Adverse Experiences: Dry mouth,[11],7.9%
same,Frequency of Adverse Experiences: Dyspepsia,[11],2.1%
same,Frequency of Adverse Experiences: Dysuria,[11],2.1* %
same,Frequency of Adverse Experiences: Fatigue,[11],2.5%
same,Frequency of Adverse Experiences: Headache,[11],8.4%
same,Frequency of Adverse Experiences: Hot flushes,[11],3.0%
same,Frequency of Adverse Experiences: Increased Sweating,[11],4.3* %
same,Frequency of Adverse Experiences: Insomnia,[11],6.1%
same,Frequency of Adverse Experiences: Nausea,[11],11.2%
same,Frequency of Adverse Experiences: Nervousness,[11],2.0%
same,Frequency of Adverse Experiences: Palpitations,[11],2.7%
same,Frequency of Adverse Experiences: Somnolence,[11],2.3%
same,Frequency of Adverse Experiences: Tremor,[11],2.5%
same,Frequency of Adverse Experiences: Vertigo,[11],5.0%
same,Frequency of Adverse Experiences: Vomiting,[11],3.9%
same,Frequency of Adverse Experiences: Abdominal Pain,[12],7.6%
same,Frequency of Adverse Experiences: Agitation,[12],2.9%
same,Frequency of Adverse Experiences: Anxiety,[12],5.1%
same,Frequency of Adverse Experiences: Dry mouth,[12],9.0%
same,Frequency of Adverse Experiences: Dyspepsia,[12],2.2%
same,Frequency of Adverse Experiences: Dysuria,[12],3.7* %
same,Frequency of Adverse Experiences: Fatigue,[12],4.4%
same,Frequency of Adverse Experiences: Headache,[12],13.5%
same,Frequency of Adverse Experiences: Hot flushes,[12],3.6%
same,Frequency of Adverse Experiences: Increased Sweating,[12],11.6* %
same,Frequency of Adverse Experiences: Insomnia,[12],11.3%
same,Frequency of Adverse Experiences: Nausea,[12],19.4* %
same,Frequency of Adverse Experiences: Nervousness,[12],2.8%
same,Frequency of Adverse Experiences: Palpitations,[12],4.6%
same,Frequency of Adverse Experiences: Somnolence,[12],3.5%
same,Frequency of Adverse Experiences: Tremor,[12],6.7* %
same,Frequency of Adverse Experiences: Vertigo,[12],4.5%
same,Frequency of Adverse Experiences: Vomiting,[12],7.9* %
same,Adverse events: headache,[2]; 100 mg/day twice daily,9%
same,Adverse events: abdominal pain,[2]; 200 mg/day twice daily,7%
same,Adverse events: headache,[2]; 200 mg/day twice daily,8%
same,Adverse events: nausea and vomiting,[2]; 200 mg/day twice daily,7%
same,Patients reporting transient nausea,[3],five of them reported transient nausea
same,Effect on uptake of dopamine,uptake of dopamine,does not affect
same,Affinity for alpha adrenergic receptors,[4],no affinity
same,Affinity for beta adrenergic receptors,[5],no affinity
same,Affinity for muscarinic receptors,muscarinic receptors,no affinity
same,Affinity for histaminergic receptors,histaminergic receptors,no affinity
same,Affinity for dopaminergic receptors,dopaminergic receptors,no affinity
same,Effect on number of beta adrenoceptors in rat cortex,[6],does not affect
same,Parent drug eliminated unchanged via the kidneys,[7]; humans,90%
same,half-life,[7]; humans,approximately 8 hours
same,Time within which oral doses are absorbed and distributed in the body,[7]; oral doses,1 to 2 h
same,Metabolites as share of the concentration of the parent drug,[7]; ten metabolites formed in the liver,about 10%
same,"Global pain score, mean value","[8]; 1-7 scale (1 very much improved, 4 unchanged, 7 very much worse), FMS patients who reached endpoint, placebo 4.3, p=0.0001",2.3
same,Participants who failed the dose escalation,[8]; BID-IR group,6%
same,Participants who failed the dose escalation,[8]; QD-IR group,19%
COc1ccc(C(CN(C)C)C2(O)CCCCC2)cc1 (stereo not shown) [venlafaxine],Adverse experience incidence: anorexia,[9],11%
same,Adverse experience incidence: anxiety,[9],6%
same,Adverse experience incidence: constipation,[9],15%
same,Adverse experience incidence: dizziness,[9],19%
same,Adverse experience incidence: dry mouth,[9],22%
same,Adverse experience incidence: insomnia,[9],18%
same,Adverse experience incidence: nausea,[9],37%
same,Adverse experience incidence: nervousness,[9],13%
same,Adverse experience incidence: somnolence,[9],23%
same,Adverse experience incidence: tremor,[9],5%
same,Adverse experience incidence: vomiting,[9],6%
same,Patients who discontinued treatment that did so due to nausea,[10],~32%
